How the values were obtained:
Format in all cases: functional
[1] = test system: Rattus norvegicus; assay: Antidiabetic activity in alloxan-induced diabetic Rattus norvegicus albino Wistar (rat) model assessed as reduction in total cholesterol level at 10 mg/kg, po administered for 14 days measured on day 1 (reference value: 98.6 +/- 0.51 mg/dl)
[2] = test system: Rattus norvegicus; assay: Antidiabetic activity in alloxan-induced diabetic Rattus norvegicus albino Wistar (rat) model assessed as reduction in triglyceride level at 10 mg/kg, po administered for 14 days measured on day 1 (reference value: 158.9 +/- 1.23 mg/dl)
[3] = test system: Rattus norvegicus; assay: Antidiabetic activity in alloxan-induced diabetic Rattus norvegicus albino Wistar (rat) model assessed as reduction in HDL level at 10 mg/kg, po administered for 14 days measured on day 14 (reference value: 36.4 +/- 1.05 mg/dl)
[4] = test system: Rattus norvegicus; assay: Antidiabetic activity in alloxan-induced diabetic Rattus norvegicus albino Wistar (rat) model assessed as reduction in triglyceride level at 10 mg/kg, po administered for 14 days measured on day 14 (reference value: 210.8 +/- 1.25 mg/dl)
[5] = test system: Rattus norvegicus; assay: Antidiabetic activity in alloxan-induced diabetic Rattus norvegicus albino Wistar (rat) model assessed as reduction in HDL level at 10 mg/kg, po administered for 14 days measured on day 1 (reference value: 40.1 +/- 2.11 mg/dl)
[6] = test system: Rattus norvegicus; assay: Antidiabetic activity in alloxan-induced diabetic Rattus norvegicus albino Wistar (rat) model assessed as TBRAS level per gram of liver tissue at 10 mg/kg, po administered for 14 days measured after 14 days (reference value: 0.72 +/-0.12 uM/g)
[7] = test system: Rattus norvegicus; assay: Antidiabetic activity in alloxan-induced diabetic Rattus norvegicus albino Wistar (rat) model assessed as change in body weight at 10 mg/kg, po administered for 14 days measured on day 14 (reference value: 190.6 +/-1.78 g)
[8] = test system: Rattus norvegicus; assay: Antidiabetic activity in alloxan-induced diabetic Rattus norvegicus albino Wistar (rat) model assessed as reduction in VLDL level at 10 mg/kg, po administered for 14 days measured on day 1 (reference value: 14.4 +/- 1.04 mg/dl)
[9] = test system: Rattus norvegicus; assay: Antidiabetic activity in alloxan-induced diabetic Rattus norvegicus albino Wistar (rat) model assessed as reduction in LDL level at 10 mg/kg, po administered for 14 days measured on day 14 (reference value: 68.2 +/- 2.10 mg/dl)
[10] = test system: Rattus norvegicus; assay: Antidiabetic activity in alloxan-induced diabetic Rattus norvegicus albino Wistar (rat) model assessed as change in body weight at 10 mg/kg, po administered for 14 days measured on day 1 (reference value: 205.4 +/-2.68 g)
[11] = test system: Rattus norvegicus; assay: Antidiabetic activity in alloxan-induced diabetic Rattus norvegicus albino Wistar (rat) model assessed as reduction in total cholesterol level at 10 mg/kg, po administered for 14 days measured on day 14 (reference value: 131.2 +/- 0.48 mg/dl)
[12] = test system: Rattus norvegicus; assay: Antidiabetic activity in alloxan-induced diabetic Rattus norvegicus albino Wistar (rat) model assessed as reduction in LDL level at 10 mg/kg, po administered for 14 days measured on day 1 (reference value: 52.4 +/- 2.32 mg/dl)
[13] = test system: Rattus norvegicus; assay: Antidiabetic activity in alloxan-induced diabetic Rattus norvegicus albino Wistar (rat) model assessed as reduction in blood glucose level at 10 mg/kg, po administered for 14 days measured on day 14 (reference value: 248.6 +/- 1.20 mg/dl)
[14] = test system: Rattus norvegicus; assay: Antidiabetic activity in alloxan-induced diabetic Rattus norvegicus albino Wistar (rat) model assessed as reduction in blood glucose level at 10 mg/kg, po administered for 14 days measured on day 1 (reference value: 242.2 +/- 0.71 mg/dl)
[15] = test system: Rattus norvegicus; assay: Antidiabetic activity in alloxan-induced diabetic Rattus norvegicus albino Wistar (rat) model assessed as reduction in VLDL level at 10 mg/kg, po administered for 14 days measured on day 14 (reference value: 29.9 +/- 0.83 mg/dl)

| SMILES | Activity [1] | Activity [2] | Activity [3] | Activity [4] | Activity [5] | Activity [6] | Activity [7] | Activity [8] | Activity [9] | Activity [10] | Activity [11] | Activity [12] | Activity [13] | Activity [14] | Activity [15] |
| --- | --- | --- | --- | --- | --- | --- | --- | --- | --- | --- | --- | --- | --- | --- | --- |
| O=C(/C=C/c1ccc(O)c(O)c1)O[C@H](Cc1ccc(O)c(O)c1)C(=O)O [ROSMARINIC ACID] | 100.1 mg/dL | 157.6 mg/dL | 50.2 mg/dL | 100.5 mg/dL | 41.2 mg/dL | 0.5 µM | 249.5 g | 14.2 mg/dL | 42.3 mg/dL | 206.8 g | 57.2 mg/dL | 51.3 mg/dL | 97.3 mg/dL | 244.1 mg/dL | 21.7 mg/dL |
| O=C(O)/C=C/c1ccc(O)c(O)c1 [CAFFEIC ACID] | 101.2 mg/dL | 160.4 mg/dL | 41.4 mg/dL | 103.2 mg/dL | 38.2 mg/dL | 0.56 µM | 246 g | 15 mg/dL | 41 mg/dL | 209.3 g | 60.6 mg/dL | 53.7 mg/dL | 105.4 mg/dL | 239 mg/dL | 20.9 mg/dL |
| COc1ccc(Cl)cc1C(=O)NCCc1ccc(S(=O)(=O)NC(=O)NC2CCCCC2)cc1 [GLYBURIDE] | 98.1 mg/dL | 161.6 mg/dL | 45.7 mg/dL | 102.5 mg/dL | 39.7 mg/dL | 0.45 µM | 250.5 g | 14 mg/dL | 36.4 mg/dL | 207.6 g | 58.6 mg/dL | 50 mg/dL | 115.1 mg/dL | 240 mg/dL | 20.1 mg/dL |

Reference: ChEMBL document CHEMBL3045977, “Antidiabetic and antioxidant activity of hydroxycinnamic acids from Calamintha Officinalis Moench” (2012)
